Assay results reported in US8871934B2, “Fluorene compound and pharmaceutical use thereof” (Japan Tobacco Inc., priority 2008, dated 2014).
Like-named read-outs stand apart in the source and are kept apart here.

Target: human PDHK2 (hPDHK2) (Homo sapiens (Human), UniProt Q15119)
Assay: Inhibitory action of PDHK activity in vitro (kinase reaction, residual PDH activity measured)
Format: biochemical
[1] = PDHK inhibitory activity, class symbol of IC50
[2] = read-out: PDHK inhibitory activity IC50
[3] = PDHK inhibitory activity (class symbol)
[4] = PDHK inhibitory activity IC50 (μmol/L)
[5] = read-out: PDHK inhibitory activity (class symbol)

Structure (SMILES) | IC50 [1] [nM] | IC50 [2] [nM] | other results
CC(=O)c1cccc2c1-c1ccccc1C2(O)C(F)(F)F (stereo not drawn) [compound 68] | 100 to 1000 | 624 | 
O=C(O)Cn1cc(-c2cccc3c2-c2ccccc2C3(O)C(F)(F)F)cn1 (stereo not drawn) [compound 483] | 100 to 1000 | 542 | 
OC1(C(F)(F)F)c2ccccc2-c2ccc(Nc3ccccc3)cc21 (stereo not drawn) [compound 166] | > 1000 | 5900 | 
OC1(C(F)(F)F)c2ccccc2-c2ccc(Cn3cccn3)cc21 (stereo not drawn) [compound 559] |  | > 1000 | IC50 (class symbol of IC50, read-out: PDHK inhibitory activity): > 1000 nM
COC(=O)c1ccc2c(c1)-c1ccccc1C2(O)C(F)(F)F (stereo not drawn) [compound 40] | > 1000 | 2470 | 
Cn1cc(-c2cc(C(=O)N3CCCC3)cc3c2-c2ccccc2C3(O)C(F)(F)F)cn1 (stereo not drawn) [compound 356] | < 100 | 53 | 
OC1(C(F)(F)F)c2ccccc2-c2ccc(OCC3CCCCC3)cc21 (stereo not drawn) [compound 253] | > 1000 | 1950 | 
NC(=O)COc1cnc2c(c1)C(O)(C(F)(F)F)c1ccccc1-2 (stereo not drawn) [compound 434] | 100 to 1000 | 561 | 
CC(C)(C)n1cc(-c2cc(CO)c3c(c2)C(O)(C(F)(F)F)c2ccccc2-3)cn1 (stereo not drawn) [compound 638] |  | 127 | IC50 [3]: 100 to 1000 nM
O=C(c1cc(-c2cncnc2)c2c(c1)C(O)(C(F)(F)F)c1ccccc1-2)N1CCC1 (stereo not drawn) [compound 369] | < 100 | 81 | 
OC1(C(F)(F)F)c2ccccc2-c2ccc(-c3cccc(F)c3)cc21 (stereo not drawn) [compound 129] | 100 to 1000 | 864 | 
Cn1cc(-c2cc(OCC(=O)N3CCC3)cc3c2-c2ccccc2C3(O)C(F)(F)F)cn1 (stereo not drawn) [compound 441] | < 100 | 36 | 
CC(=O)N(C)CCOc1cc(Cl)c2c(c1)C(O)(C(F)(F)F)c1ccccc1-2 (stereo not drawn) [compound 388] | < 100 | 63 | 
Cn1cc(-c2cc(OCC(CO)CO)cc3c2-c2ccccc2C3(O)C(F)(F)F)cn1 (stereo not drawn) [compound 622] |  | 33 | IC50 [3]: < 100 nM
O=C(COc1cc(-c2cnn(CCO)c2)c2c(c1)C(O)(C(F)(F)F)c1ccccc1-2)N1CCC1 (stereo not drawn) [compound 496] | < 100 | 23 | 
O=C(O)CCCn1cc(-c2cc(F)cc3c2-c2ccccc2[C@]3(O)C(F)(F)F)cn1 (stereo in doubt) [compound 537] | < 100 |  | IC50 [4]: 35 nM
COC(=O)COC1CN(C(=O)c2ccc3c(c2)C(O)(C(F)(F)F)c2ccccc2-3)C1 (stereo not drawn) [compound 115] | 100 to 1000 | 417 | 
Cn1cc(-c2cc(Cl)cc3c2-c2ccccc2C3(O)C(F)(F)F)cn1 (stereo not drawn) [compound 286] | < 100 | 17 | 
O=C(c1ccc2c(c1)C(O)(C(F)(F)F)c1ccccc1-2)N1CCC(CO)C1 (stereo not drawn) [compound 225] | 100 to 1000 | 619 | 
Cn1cc(-c2cc(OCCN3CCCC3=O)cc3c2-c2ccccc2C3(O)C(F)(F)F)cn1 (stereo not drawn) [compound 412] | < 100 | 22 | 
CN(C)C1CN(C(=O)c2ccc3c(c2)C(O)(C(F)(F)F)c2ccccc2-3)C1 (stereo not drawn) [compound 133] | > 1000 | 2500 | 
OC1(C(F)(F)F)c2ccccc2-c2cc(F)ccc21 (stereo not drawn) [compound 12] | > 1000 | 5500 | 

Structure (SMILES) | IC50 [1] [nM] | IC50 [2] [nM] | other results
Cc1noc(-c2ccc3c(c2)C(O)(C(F)(F)F)c2ccccc2-3)n1 (stereo not drawn) [compound 247] | 100 to 1000 | 547 | 
Cn1cc(-c2cc(OCCNC(=O)CCC(=O)C(F)(F)F)cc3c2-c2ccccc2C3(O)C(F)(F)F)cn1 (stereo not drawn) [compound 464] | < 100 | 42 | 
COC(=O)c1cc(Cl)c2c(c1)C(O)(C(F)(F)F)c1ccccc1-2 (single isomer, unassigned) [compound 647, 4-chloro-9-hydroxy-9-trifluoromethyl-9H-fluorene-2-carboxylic acid methyl ester] |  | 169 | IC50 [3]: 100 to 1000 nM
O=C(c1cc(CO)c2c(c1)C(O)(C(F)(F)F)c1ccccc1-2)N1CCC1 (stereo not drawn) [compound 556] | < 100 | 53 | 
NC(=O)CCn1cc(-c2ccc3c(c2)C(O)(C(F)(F)F)c2cccc(CO)c2-3)cn1 (stereo not drawn) [compound 601] |  | > 1000 | IC50 [5]: > 1000 nM
CN(C)C(=O)Cn1cc(-c2cccc3c2-c2ccccc2C3(O)C(F)(F)F)cn1 (stereo not drawn) [compound 495] | 100 to 1000 | 119 | 
CC(=O)N(C)CC(C)Oc1ccc2c(c1)C(O)(C(F)(F)F)c1ccccc1-2 (stereo not drawn) [compound 380] | > 1000 | 1490 | 
CN(CCOc1ccc2c(c1)C(O)(C(F)(F)F)c1ccccc1-2)CC(=O)O (stereo not drawn) [compound 444] | > 1000 | 3930 | 
OC1(C(F)(F)F)c2ccccc2-c2ccc(OC3CCC3)cc21 (stereo not drawn) [compound 128] | > 1000 | 2400 | 
OC1(C(F)(F)F)c2ccccc2-c2c(C(F)(F)F)cccc21 (stereo not drawn) [compound 64] | > 1000 | 18000 | 
CC1CCN(c2ccc3c(c2)C(O)(C(F)(F)F)c2ccccc2-3)C1 (stereo not drawn) [compound 269] | > 1000 | 1340 | 
CN(C)C(=O)CCOc1cc(-c2cnn(C)c2)c2c(c1)C(O)(C(F)(F)F)c1ccccc1-2 (stereo not drawn) [compound 455] | < 100 | 26 | 
COc1ccc2c(c1)-c1ccccc1C2(O)C(F)(F)F (stereo not drawn) [compound 47] | > 1000 | 4910 | 
N#Cc1ccc2c(c1)C(O)(C(F)(F)F)c1ccccc1-2 (stereo not drawn) [compound 671] |  | 1440 | IC50 [3]: > 1000 nM
CCc1cc(CO)c2c(c1)C(O)(C(F)(F)F)c1ccccc1-2 (stereo not drawn) [compound 642] |  | > 1000 | IC50 [5]: > 1000 nM
NC(=O)CCCOc1ccc2c(c1)C(O)(C(F)(F)F)c1ccccc1-2 (stereo not drawn) [compound 280] | > 1000 | 1510 | 
Cn1cc(-c2cc(C(=O)N3CCC3)cc3c2-c2ccccc2C3(O)C(F)(F)F)cn1 (stereo not drawn) [compound 355] | < 100 | 40 | 
O=C(c1cc(Cl)c2c(c1)C(O)(C(F)(F)F)c1ccccc1-2)N1CC(OCCO)C1 (stereo not drawn) [compound 328] | < 100 | 78 | 
CCOC1CN(C(=O)c2ccc3c(c2)C(O)(C(F)(F)F)c2ccccc2-3)C1 (stereo not drawn) [compound 104] | 100 to 1000 | 279 | 
CC(C)(C)COc1ccc2c(c1)C(O)(C(F)(F)F)c1ccccc1-2 (stereo not drawn) [compound 279] | > 1000 | 1850 | 
Cn1cc(-c2cc(C(=O)N3CCC[C@@H]3CO)cc3c2-c2ccccc2C3(O)C(F)(F)F)cn1 (stereo partly drawn) [compound 392] | 100 to 1000 | 200 | 
O=C1CCCN1CCOc1cc(-c2cn[nH]c2)c2c(c1)C(O)(C(F)(F)F)c1ccccc1-2 (stereo not drawn) [compound 491] | < 100 | 20 | 

Structure (SMILES) | IC50 [1] [nM] | IC50 [2] [nM] | other results
O=C(O)CCCCCOc1ccc2c(c1)C(O)(C(F)(F)F)c1ccccc1-2 (stereo not drawn) [compound 318] | 100 to 1000 | 553 | 
CN(C)C(=O)c1cccc2c1-c1ccccc1C2(O)C(F)(F)F (stereo not drawn) [compound 35] | > 1000 | > 100000 | 
Cc1cc(-c2cnn(C(CO)CO)c2)c2c(c1)C(O)(C(F)(F)F)c1ccccc1-2 (single isomer, unassigned) [compound 605] |  | 19 | IC50 [3]: < 100 nM
CNC(=O)c1cccc2c1-c1ccccc1C2(O)C(F)(F)F (stereo not drawn) [compound 34] | > 1000 | 33200 | 
O=C(c1ccc2c(c1)C(O)(C(F)(F)F)c1ccccc1-2)N1CC1 (stereo not drawn) [compound 78] | > 1000 | 1360 | 
OC1(C(F)(F)F)c2cc(Cl)ccc2-c2ccc(Cl)cc21 [compound 14] | > 1000 | 56600 | 
O=C1CCCCN1CCCOc1ccc2c(c1)C(O)(C(F)(F)F)c1ccccc1-2 (stereo not drawn) [compound 401] | 100 to 1000 | 554 | 
CC(CO)(CO)n1cc(-c2cccc3c2-c2ccccc2C3(O)C(F)(F)F)cn1 (single isomer, unassigned) [compound 702] |  | 30 | IC50 [3]: < 100 nM
Cc1cc(Cl)c2c(c1)[C@](O)(C(F)(F)F)c1ccccc1-2 (stereo in doubt) [compound 520] | > 1000 |  | IC50 [4]: 3330 nM
CN(CCCO)C(=O)c1ccc2c(c1)C(O)(C(F)(F)F)c1ccccc1-2 (stereo not drawn) [compound 327] | > 1000 | 2940 | 
OC1(C(F)(F)F)c2ccccc2-c2ccc(C3CC3)cc21 (stereo not drawn) [compound 244] | > 1000 | 2930 | 
NC(=O)CCn1cc(-c2cccc3c2-c2ccccc2C3(O)C(F)(F)F)cn1 (stereo not drawn) [compound 486] | < 100 | 55 | 
Cc1cc(Cl)c2c(c1)C(O)(C(F)(F)F)c1ccccc1-2 (stereo not drawn) [compound 519] | 100 to 1000 | 418 | 
Cn1cc(-c2cc(C#CCO)c3c(c2)C(O)(C(F)(F)F)c2ccccc2-3)cn1 (stereo not drawn) [compound 603] |  | 228 | IC50 [3]: 100 to 1000 nM
O=C(c1ccc2c(c1)C(O)(C(F)(F)F)c1ccccc1-2)N1CCCC1CO (stereo not drawn) [compound 195] | > 1000 | 5480 | 
OC1(C(F)(F)F)c2ccccc2-c2ccc(-c3cccnc3)cc21 (stereo not drawn) [compound 102] | 100 to 1000 | 323 | 
NC(=O)COc1ccc2c(c1)C(O)(C(F)(F)F)c1ccccc1-2 (stereo not drawn) [compound 288] | 100 to 1000 | 635 | 
Oc1ccc2c(c1)-c1ccccc1C2(O)C(F)(F)F (stereo not drawn) [compound 62] | > 1000 | 15700 | 
NC(=O)CCCCOc1ccc2c(c1)C(O)(C(F)(F)F)c1ccccc1-2 (stereo not drawn) [compound 306] | 100 to 1000 | 453 | 
OC1(C(F)(F)F)c2ccccc2-c2ccc(-c3cccc(Cl)c3)cc21 (stereo not drawn) [compound 132] | 100 to 1000 | 694 | 
CC(CO)(CO)n1cc(-c2cc(F)cc3c2-c2ccccc2C3(O)C(F)(F)F)cn1 (single isomer, unassigned; (+)) [compound 673, (+)-2-[4-(2-fluoro-9-hydroxy-9-trifluoromethyl-9H-fluoren-4-yl)-pyrazol-1-yl]-2-methyl-propane-1,3-diol] |  | 22 | IC50 [3]: < 100 nM
CC(C)Cn1cc(-c2cc(C(N)=O)c3c(c2)C(O)(C(F)(F)F)c2ccccc2-3)cn1 (stereo not drawn) [compound 645] |  | 37 | IC50 [3]: < 100 nM
